Experimental data reported in US8765779B2, “Tricyclic derivatives and their pharmaceutical use and compositions” (Cephalon, Inc., priority 2009, dated 2014).
Counter-ions that a name gives are not always drawn.

melting point	SMILES
220 to 225 °C (dec.)	CC(C)C(=O)NCC1(C)NCCc2c1oc1cc(S(=O)(=O)c3cccc(F)c3)ccc21 (stereo not shown) (as salt: HCl) [Example 491, N-[7-(3-Fluoro-benzenesulfonyl)-1-methyl-1,2,3,4-tetrahydro-benzofuro[2,3-c]pyridin-1-ylmethyl]-isobutyramide]
174 to 175 °C	C#CCOc1cccc(S(=O)(=O)c2ccc3c(c2)OC2CNCCC32)c1 (stereo not shown) (as salt: HCl) [Example 549]
203 to 204 °C	N#Cc1ccc(COc2cccc(S(=O)(=O)c3ccc4c(c3)OC3CNCCC43)c2)cc1 (stereo not shown) (as salt: HCl) [Example 551]
200 to 201 °C	N#Cc1cccc(COc2cccc(S(=O)(=O)c3ccc4c(c3)OC3CNCCC43)c2)c1 (stereo not shown) (as salt: HCl) [Example 552]
208 to 210 °C	O=S(=O)(c1cccc(OCC2CC2)c1)c1ccc2c(c1)OC1CNCCC21 (stereo not shown) (as salt: HCl) [Example 555]
210 to 213 °C	COCCOc1cccc(S(=O)(=O)c2ccc3c(c2)OC2CNCCC32)c1 (stereo not shown) (as salt: HCl) [Example 558]
187 to 190 °C	Cn1cnc(COc2cccc(S(=O)(=O)c3ccc4c(c3)OC3CNCCC43)c2)n1 (stereo not shown) (as salt: HCl) [Example 560]
179 to 182 °C	O=S(=O)(c1cccc(OCc2ccccn2)c1)c1ccc2c(c1)OC1CNCCC21 (stereo not shown) (as salt: HCl) [Example 562]
195 to 196 °C	O=C(COc1cccc(S(=O)(=O)c2ccc3c(c2)OC2CNCCC32)c1)N1CCCC1 (stereo not shown) (as salt: HCl) [Example 564]
215 to 217 °C	Cc1cc(COc2cccc(S(=O)(=O)c3ccc4c(c3)OC3CNCCC43)c2)no1 (stereo not shown) (as salt: HCl) [Example 565]
179 to 182 °C	Cc1c(OCc2cccnc2)cccc1S(=O)(=O)c1ccc2c(c1)OC1CNCCC21 (stereo not shown) (as salt: HCl) [Example 566]
206 to 209 °C	O=S(=O)(c1cccc(OCCCO)c1)c1ccc2c(c1)OC1CNCCC21 (stereo not shown) (as salt: HCl) [Example 568]
188 to 190 °C	O=S(=O)(c1cccc(OCC2CCOCC2)c1)c1ccc2c(c1)OC1CNCCC21 (stereo not shown) (as salt: HCl) [Example 570, 7-{[3-(tetrahydro-2H-pyran-4-ylmethoxy)phenyl]sulfonyl}-1,2,3,4,4a,9a-hexahydro[1]benzofuro[2,3-c]pyridine]
210 to 213 °C	CCCOc1cccc(S(=O)(=O)c2ccc3c(c2)OC2CNCCC32)c1 (stereo not shown) (as salt: HCl) [Example 572]
233 to 234 °C	O=S(=O)(c1cccc(OCCn2cccc2)c1)c1ccc2c(c1)OC1CNCCC21 (stereo not shown) (as salt: HCl) [Example 573]
189 to 190 °C	N#CCCCCOc1cccc(S(=O)(=O)c2ccc3c(c2)OC2CNCCC32)c1 (stereo not shown) (as salt: HCl) [Example 574]
247 to 248 °C	COc1cccc(COc2cccc(S(=O)(=O)c3ccc4c(c3)OC3CNCCC43)c2)c1 (stereo not shown) (as salt: HCl) [Example 575]
179 to 181 °C	COCCCOc1cccc(S(=O)(=O)c2ccc3c(c2)OC2CNCCC32)c1 (stereo not shown) (as salt: HCl) [Example 576]
263 to 266 °C	O=S(=O)(c1cccc(OCC(F)F)c1)c1ccc2c(c1)OC1CNCCC21 (stereo not shown) (as salt: HCl) [Example 578]
186 to 188 °C	O=S(=O)(c1cccc(OCC2CCOCC2)c1)c1ccc2c(c1)OC1CNCCC21 (stereo not shown) (as salt: HCl) [Example 581, 7-{[3-(tetrahydro-2H-pyran-4-ylmethoxy)phenyl]sulfonyl}-1,2,3,4,4a,9a-hexahydro[1]benzofuro[2,3-c]pyridine]
218 to 220 °C	COc1cc(OC2CCC2)cc(S(=O)(=O)c2ccc3c(c2)OC2CNCCC32)c1 (stereo not shown) (as salt: HCl) [Example 583]
207 to 208 °C	COc1cc(OCC2CCOCC2)cc(S(=O)(=O)c2ccc3c(c2)OC2CNCCC32)c1 (stereo not shown) (as salt: HCl) [Example 584]
224 to 225 °C	COc1cc(OCC2CC2)cc(S(=O)(=O)c2ccc3c(c2)OC2CNCCC32)c1 (stereo not shown) (as salt: HCl) [Example 585]
239 to 241 °C	COc1cc(OC2CCCC2)cc(S(=O)(=O)c2ccc3c(c2)OC2CNCCC32)c1 (stereo not shown) (as salt: HCl) [Example 586]
164 to 166 °C	COCCCOc1cc(OC(C)C)cc(S(=O)(=O)c2ccc3c(c2)OC2CNCCC32)c1 (stereo not shown) (as salt: HCl) [Example 588]
211 to 213 °C (dec.)	CC(C)Oc1cc(OC(CO)CCl)cc(S(=O)(=O)c2ccc3c(c2)OC2CNCCC32)c1 (stereo not shown) (as salt: HCl) [Example 589]
205 to 208 °C	CC(C)Oc1cc(OCCO)cc(S(=O)(=O)c2ccc3c(c2)OC2CNCCC32)c1 (stereo not shown) (as salt: HCl) [Example 590]
203 to 204 °C	O=S(=O)(c1cc(F)cc(OCC2CCOCC2)c1)c1ccc2c(c1)OC1CNCCC21 (stereo not shown) (as salt: HCl) [Example 591]
217 to 227 °C	CC(=O)NCC1(C)NCCc2c1oc1cc(S(=O)(=O)c3cccc(F)c3)ccc21 (stereo not shown) (as salt: HCl) [Example 631, N-({7-[(3-fluorophenyl)sulfonyl]-1-methyl-1,2,3,4-tetrahydro[1]benzofuro[2,3-c]pyridin-1-yl}methyl)acetamide]
210 to 260 °C	CC(=O)NCC1(C)NCCc2c1oc1cc(S(=O)(=O)c3cccc(F)c3)ccc21 (stereo not shown) (as salt: HCl) [Example 632, N-({7-[(3-fluorophenyl)sulfonyl]-1-methyl-1,2,3,4-tetrahydro[1]benzofuro[2,3-c]pyridin-1-yl}methyl)acetamide]

More lines, now with the values behind:

SMILES	melting point
N#Cc1ccccc1COc1cccc(S(=O)(=O)c2ccc3c(c2)OC2CNCCC32)c1 (stereo not shown) (as salt: HCl) [Example 550]	194 to 195 °C
O=S(=O)(c1cccc(OCC2CCCCO2)c1)c1ccc2c(c1)OC1CNCCC21 (stereo not shown) (as salt: HCl) [Example 553]	192 to 194 °C
CCCCOc1cccc(S(=O)(=O)c2ccc3c(c2)OC2CNCCC32)c1 (stereo not shown) (as salt: HCl) [Example 554]	206 to 208 °C
COC(=O)CCCCOc1cccc(S(=O)(=O)c2ccc3c(c2)OC2CNCCC32)c1 (stereo not shown) (as salt: HCl) [Example 556]	179 to 181 °C
CCCCCOc1cccc(S(=O)(=O)c2ccc3c(c2)OC2CNCCC32)c1 (stereo not shown) (as salt: HCl) [Example 557]	199 to 201 °C
O=S(=O)(c1cccc(OCc2cccnc2)c1)c1ccc2c(c1)OC1CNCCC21 (stereo not shown) (as salt: HCl) [Example 559]	167 to 171 °C
O=S(=O)(c1cccc(OCc2ccncc2)c1)c1ccc2c(c1)OC1CNCCC21 (stereo not shown) (as salt: HCl) [Example 561]	182 to 185 °C
NC(=O)COc1cccc(S(=O)(=O)c2ccc3c(c2)OC2CNCCC32)c1 (stereo not shown) (as salt: HCl) [Example 563]	237 to 239 °C
O=S(=O)(c1cccc(OCc2cnccn2)c1)c1ccc2c(c1)OC1CNCCC21 (stereo not shown) (as salt: HCl) [Example 567]	244 to 245 °C
Cc1nc(COc2cccc(S(=O)(=O)c3ccc4c(c3)OC3CNCCC43)c2)cs1 (stereo not shown) (as salt: HCl) [Example 569]	205 to 208 °C
O=S(=O)(c1cccc(OC2CCOCC2)c1)c1ccc2c(c1)OC1CNCCC21 (stereo not shown) (as salt: HCl) [Example 571]	184 to 186 °C
O=S(=O)(c1cccc(OCC2CCCO2)c1)c1ccc2c(c1)OC1CNCCC21 (stereo not shown) (as salt: HCl) [Example 577]	205 to 206 °C
O=S(=O)(c1cccc(Oc2ccccn2)c1)c1ccc2c(c1)OC1CNCCC21 (stereo not shown) (as salt: HCl) [Example 579]	198 to 203 °C
O=S(=O)(c1cccc(Oc2cnccn2)c1)c1ccc2c(c1)OC1CNCCC21 (stereo not shown) (as salt: HCl) [Example 580]	234 to 236 °C
Cc1c(OCC2CCOCC2)cccc1S(=O)(=O)c1ccc2c(c1)OC1CNCCC21 (stereo not shown) (as salt: HCl) [Example 582]	201 to 202 °C
CC12CCNCC1Oc1ccc(S(=O)(=O)c3ccccc3)cc12 (stereo not shown) (as salt: hydrochloride) [Example 62, 4a-Methyl-6-(phenylsulfonyl)-1,2,3,4,4a,9a-hexahydro[1]benzofuro[2,3-c]pyridine hydrochloride]	236 to 238 °C (dec.)
CN(C)C(=O)c1cccc(S(=O)(=O)c2ccc3c4c(oc3c2)CNCC4)c1 (as salt: hydrochloride) [Example 474, N,N-Dimethyl-3-(1,2,3,4-tetrahydro[1]benzofuro[2,3-c]pyridin-7-ylsulfonyl)benzamide hydrochloride]	262 to 265 °C
COc1ccccc1S(=O)(=O)c1ccc2c(c1)OC1CNCCC21C (racemic) (as salt: HCl) [Example 3, 7-[(2-methoxyphenyl)sulfonyl]-4a-methyl-1,2,3,4,4a,9a-hexahydro[1]benzofuro[2,3-c]pyridine]	222 to 224 °C
COc1cccc(S(=O)(=O)c2ccc3c(c2)OC2CNCCC32C)c1 (racemic) (as salt: HCl) [Example 4, 7-[(3-methoxyphenyl)sulfonyl]-4a-methyl-1,2,3,4,4a,9a-hexahydro[1]benzofuro[2,3-c]pyridine]	279 to 280 °C
COc1ccc(S(=O)(=O)c2ccc3c(c2)OC2CNCCC32C)cc1 (racemic) (as salt: HCl) [Example 5, 7-[(4-methoxyphenyl)sulfonyl]-4a-methyl-1,2,3,4,4a,9a-hexahydro[1]benzofuro[2,3-c]pyridine]	283 to 284 °C
Cc1cccc(S(=O)(=O)c2ccc3c(c2)OC2CNCCC32C)n1 (racemic) (as salt: HCl) [Example 6, 4a-methyl-7-[(6-methylpyridin-2-yl)sulfonyl]-1,2,3,4,4a,9a-hexahydro[1]benzofuro[2,3-c]pyridine]	255 to 258 °C
Cc1ccnc(S(=O)(=O)c2ccc3c(c2)OC2CNCCC32C)n1 (racemic) (as salt: HCl) [Example 7, 4a-methyl-7-[(4-methylpyrimidin-2-yl)sulfonyl]-1,2,3,4,4a,9a-hexahydro[1]benzofuro[2,3-c]pyridine]	199 to 201 °C
